Experiments:
Format in all cases: cell-based, human
[1] = tested on: MB231Br (breast cancer metastasis to brain); experiment: Drug screening of MB231Br tumor foci on OBSCs
[2] = tested on: MS21 (low-passage patient-derived GBM line); experiment: Drug screening of MS21 tumor foci on OBSCs
Procedure, shortened: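 Tumor foci (25,000 cells) were seeded onto organotypic brain slice cultures 2 h after slicing, two per slice; one day later six drug concentrations were added to the medium or X-ray was applied. Bioluminescence was read 3 days after treatment, normalized to day-one fluorescence and to untreated controls.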

[3] = tested on: U373KO (RAD18 knockout of U373WT via CRISPR); experiment: Drug screening of U373KO tumor foci on OBSCs; details: U373 KO on OBSCs
Procedure, shortened: (§1)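 Luciferase-expressing tumor cells seeded onto organotypic brain slice cultures; one day later treated with six drug concentrations in the medium, or X-irradiation. Bioluminescence read three days after treatment, normalised to day-one fluorescence and untreated controls. Dose-response values by linear interpolation; DSS combines weighted tumor-kill versus slice-toxicity parameters (−100 to 100).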

[4] = tested on: LN229 (established GBM line); experiment: Drug screening of LN229 tumor foci on OBSCs
Procedure, shortened: as §1

[5] = tested on: PGBM patient tumor tissue (pediatric GBM); experiment: Drug screening of uncultured patient tumor tissue PGBM on OBSCs; details: Homo sapiens, PGBM on OBSCs
Procedure: (§2) Tumor cells were seeded onto OBSCs 2h after slicing as described above. One day after tumor seeding, six concentrations of each drug were diluted in the media underneath each culture insert, or XRad was applied using an X-Rad 320 Precision X-ray machine (n = 4 tumor foci per concentration; n ≥ 24 tumor foci per drug per cell line). Three days after treatment, the bioluminescence of live tumor cells was measured using an AMI optical imager (Spectral Instruments) and dose-response curves were generated. Tumor survival was normalized to day one tumor fluorescence and compared to an untreated control group.
(§3) To engraft onto OBSCs, the cryopreserved/thawed or fresh brain tumor tissue was filtered through a 100 μm cell strainer. Each 50 mg of tissue was transfected with 1mL mcherry-FLuc Lentivirus at 1.5e7 vg/ml with 1μL polybrene for 4h at 37°C. After incubation, the brain tumor tissue was washed with PBS three times to remove the residual virus and reconstituted in PBS with a final volume of 150 μL. Then the tissue solution was engrafted atop OBSCs at ∼0.5 mg tissue in 3 μL of PBS on each hemisphere of the slice. The OBSC engrafted with patient tumor tissue was incubated at 37°C with 5% CO2 and 95% humidity. The BSM was changed after 24h and subsequently every 3 days. Tumor treatment studies were executed as described above for tumor lines. The viability of the patient tissue was measured by an AMI optical imaging system with the addition of 1.5 mg/mL luciferin underneath the culture insert.
(§4) Several weighted parameters were factored into an overall drug sensitivity score.
(§5) For DSS parameters 1–6, therapeutic windows were calculated by comparing OBSC toxicity and tumor response at the doses where tumor kill passed through the DSS parameter (Table S1 and S3). For DSS parameter 7, the therapeutic window was calculated by comparing the slopes through the tumor EC50 and the OBSC tox EC50. For DSS parameter 8, the therapeutic window was calculated by comparing the areas under tumor kill and OBSC tox curves. Normalized therapeutic window ratios for DSS parameters 1–8 within each drug-tumor-OBSC interaction were calculated in the following manner: within each window, values ranged from +1 to −1, where values approaching +1 signify increasing tumor kill relative to normal tissue toxicity, and values approaching −1 indicate agents where tumors remained highly viable while toxicity to the normal OBSC tissue was elevated. DSS parameters 9–11 were determined based on the behavior of the tumor in response to the drug, as defined above.
(§6) All individually weighed parameters were added together to generate the DSS. Overall DSS from 0 to 100 signify increasing efficacy in tumor kill relative to OBSC toxicity, while scores from 0 to −100 describe scenarios in which tumors thrive more effectively than OBSCs for a given treatment. Dose-response values were calculated via linear interpolation of raw data, not from best-fit curve equations.

[6] = tested on: U373WT (wild-type established GBM line); experiment: Drug screening of U373WT tumor foci on OBSCs; details: U373 WT on OBSCs
Procedure, shortened: as §1

[7] = tested on: 7 cell lines (MB231Br, LN229, U373WT, U373KO, GBM8, MS21, PDIPG); experiment: Drug screening on OBSCs, summary over the panel of seven tumor lines
Procedure, shortened: as §1

[8] = tested on: PGBM-R patient tumor tissue (recurrent tumor from same patient as PGBM); experiment: Drug screening of uncultured patient tumor tissue PGBM-R on OBSCs; details: PGBM-R relative to PGBM
Procedure: as §2, §3, §4, §5, §6

[9] = tested on: GBM8 (high-passage patient-derived GBM line); experiment: Drug screening of GBM8 tumor foci on OBSCs
Procedure, shortened: as §1

[10] = tested on: PIS patient tumor tissue (intracranial sarcoma); experiment: Drug screening of uncultured patient tumor tissue PIS on OBSCs; details: Homo sapiens; PIS on OBSCs; dose required to kill 90% of the tumor
Procedure, shortened: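 Uncultured patient tumour tissue, transduced with mCherry-FLuc lentivirus, engrafted on organotypic brain slice cultures (OBSCs); six drug concentrations or X-ray dosing given one day after seeding, n = 4 foci per concentration. Bioluminescence with luciferin read three days post-treatment, normalised to day one and untreated controls; drug sensitivity score combines weighted therapeutic-window parameters versus OBSC toxicity (−100 to 100).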

[11] = tested on: PDIPG (low-passage pediatric patient-derived line); experiment: Drug screening of PDIPG tumor foci on OBSCs
Procedure, shortened: as §1

[12] = Homo sapiens, U373 MG, dose required to kill 50% of the tumor
[13] = Homo sapiens, U373 MG, dose required to kill 90% of the tumor
[14] = Homo sapiens, U373 MG, dosed day 1, survival via bioluminescence day 4, linear interpolation
[15] = area under the dose-response curve, trapezoidal rule
[16] = dose required to kill 10% of the tumor
[17] = dose required to kill 25% of the tumor
[18] = dose required to kill 75% of the tumor

## Nc1ncn([C@@H]2O[C@H](CO)[C@@H](O)[C@H]2O)c(=O)n1 [Azacitidine]
[1]; Homo sapiens, MB231BR on OBSCs, dose required to kill 50% of the tumor
  EC50: 208 µM
[1]; Homo sapiens, MB231BR on OBSCs, dose required to kill 90% of the tumor
  EC90: 906 µM
[1]; Homo sapiens, MB231Br on OBSCs, dosed day 1, survival via bioluminescence day 4, linear interpolation
  IC50: 208 µM
[1]; MB231BR on OBSCs
  Killing at highest dose: 9.50E-01 fraction of tumor population killed
[1]; MB231BR on OBSCs, area under the dose-response curve, trapezoidal rule
  AUC: 3.36E+02
[1]; MB231BR on OBSCs, dose required to kill 10% of the tumor
  EC10: 4.76 µM
[1]; MB231BR on OBSCs, dose required to kill 25% of the tumor
  EC25: 18.9 µM
[1]; MB231BR on OBSCs, dose required to kill 75% of the tumor
  EC75: 625 µM
[1]; MB231BR on OBSCs, slope through the EC50
  Slope: -1.20E-03
[2]; Homo sapiens
  EC50: 821 µM
  EC90: > 10 µM
  IC50: 821 µM
[2]; MS21 on OBSCs
  Killing at highest dose: 5.50E-01 fraction of tumor population killed
[2]; MS21 on OBSCs, area under the dose-response curve, trapezoidal rule
  AUC: 6.06E+02
[2]; MS21 on OBSCs, dose required to kill 10% of the tumor
  EC10: 31.5 µM
[2]; MS21 on OBSCs, dose required to kill 25% of the tumor
  EC25: 90.9 µM
[2]; MS21 on OBSCs, slope through the EC50
  Slope: -2.80E-04
[3]; [12]
  EC50: 158 µM
[3]; [13]
  EC90: > 10 µM
[3]; [14]
  IC50: 158 µM
[3]
  Killing at highest dose: 8.30E-01 fraction of tumor population killed
[3]; [15]
  AUC: 3.39E+02
[3]; [16]
  EC10: 23.8 µM
[3]; [17]
  EC25: 44.5 µM
[3]; [18]
  EC75: 647 µM
[3]; slope through the EC50
  Slope: -1.73E-03
[4]
  Killing at highest dose: 8.60E-01 fraction of tumor population killed
[4]; Homo sapiens, LN-229, dose required to kill 50% of the tumor
  EC50: 400 µM
[4]; Homo sapiens, LN-229, dose required to kill 90% of the tumor
  EC90: > 10 µM
[4]; Homo sapiens, LN-229, dosed day 1, survival via bioluminescence day 4, linear interpolation
  IC50: 400 µM
[4]; [15]
  AUC: 4.51E+02
[4]; [16]
  EC10: 28.9 µM
[4]; [17]
  EC25: 45.6 µM
[4]; [18]
  EC75: 817 µM
[4]; slope through the EC50
  Slope: -6.00E-04
[5]; dose required to kill 50% of the tumor
  EC50: > 100 µM
[5]; dose required to kill 90% of the tumor
  EC90: > 10 µM
[6]; [12]
  EC50: 800 µM
[6]; [13]
  EC90: > 10 µM
[6]; [14]
  IC50: 800 µM
[6]
  Killing at highest dose: 5.40E-01 fraction of tumor population killed
[6]; [15]
  AUC: 5.88E+02
[6]; [16]
  EC10: 61.1 µM
[6]; [17]
  EC25: 81.9 µM
[6]; slope through the EC50
  Slope: -2.00E-04
[7]; Homo sapiens, read-out: IC50 values, range over the cell lines
  IC50: 200 to 400 µM
[7]; number of lines responding
  response / killing over the 7 cell lines: 7 of 7
[8]
  increase of DSS in the recurrent tumor: 96 points
[9]; GBM8 on OBSCs
  Killing at highest dose: 1.00E+00 fraction of tumor population killed
[9]; GBM8 on OBSCs, area under the dose-response curve, trapezoidal rule
  AUC: 4.08E+01
[9]; GBM8 on OBSCs, dose required to kill 10% of the tumor
  EC10: 8.33 µM
[9]; GBM8 on OBSCs, dose required to kill 25% of the tumor
  EC25: 18.1 µM
[9]; GBM8 on OBSCs, dose required to kill 75% of the tumor
  EC75: 49.4 µM
[9]; GBM8 on OBSCs, slope through the EC50
  Slope: -1.60E-02
[9]; Homo sapiens
  EC50: 33.8 µM
  EC90: 83.3 µM
  IC50: 34 µM
[10]
  EC90: > 10 µM
[11]; Homo sapiens
  EC50: 447 µM
  EC90: > 10 µM
  IC50: 447 µM
[11]; PDIPG on OBSCs
  Killing at highest dose: 6.40E-01 fraction of tumor population killed
[11]; PDIPG on OBSCs, area under the dose-response curve, trapezoidal rule
  AUC: 5.03E+02
[11]; PDIPG on OBSCs, dose required to kill 10% of the tumor
  EC10: 3.7 µM
[11]; PDIPG on OBSCs, dose required to kill 25% of the tumor
  EC25: 9.26 µM
[11]; PDIPG on OBSCs, slope through the EC50
  Slope: -2.53E-04

From PMC10313921, “A living ex vivo platform for functional, personalized brain cancer diagnosis” (Cell Reports Medicine, 2023)
